Columns and labels:
[1] = target: T1, FapR (Bacillus subtilis, UniProt O34835); assay: Cell-free transcription-translation (TX-TL) FapR/T7-fapO-sfGFP assay; format: biochemical, B. subtilis; set-up: made in house; host or cells: E. coli BL21(DE3); conditions: for effector of FapR as judged by cell-free fluorescence / fluorescence response (de-repression of FapR/T7-fapO-sfGFP) compared among thioesters: each thioester at fixed concentration (150 μM)
Source text: To this end, the reporter module of the FapR 2H8 biosensor was cloned into pET28a, replacing the typical lacO site controlling the T7 promoter with a single fapO binding site upstream of the sfGFP gene, producing pET28a-T7-fapO-sfGFP (FIG. 5C). Each α-carboxyacyl-CoA was generated enzymatically from the corresponding malonic acid and CoA using the wild-type malonyl-CoA synthetase MatB or the engineered MatB variant, T207G/M306I. Next, the response of the cell-free TX-TL biosensor assay was evaluated by using various concentrations of MatB-generated native effector, mCoA, along with a fixed amount of purified FapR and T7-fapO-sfGFP. […] In addition, the maximum fluorescence signal was ˜15-fold greater than that in the absence of mCoA. Furthermore, to account for potential inhibition of the cell-free biosensor by the MatB reaction mixture, the FapR system was also assayed using a commercial standard of mCoA.
Dose-response analysis of the cell-free TX-TL FapR assay. A premixed solution for cell-free transcription-translation reactions was purchased from New England Biolabs (PURExpress In Vitro Protein Synthesis Kit). To a PCR tube on ice were added (in the order shown): 4 μL Solution A, 3 μL Solution B, 2.5 μM FapR, 250 nM T7-fapO-sfGFP and 0-150 μM of MatB-generated or commercial mCoA in a total volume of 10 μL. In parallel, control reactions in the absence of thioester were assembled by using boiled MatB in the presence of malonic acid. The reaction was incubated for 16 h at 37° C. and then diluted with PBS buffer to give a final total volume of 50 μL.
Cell-Free Characterization of FapR Promiscuity. A commercial kit for cell-free transcription-translation reactions was purchased from New England Biolabs (PURExpress In Vitro Protein Synthesis Kit). To a PCR tube on ice were added (in the order shown): 4 μL Solution A, 3 μL Solution B, 2.5 μM FapR, 250 nM T7-fapO-sfGFP and 150 μM of MatB-generated acyl-CoA or mmSNAC in a total volume of 10 μL (FIG. 9). In parallel, control reactions in the absence of thioester were assembled by using boiled MatB. The reaction was incubated for 16 h at 37° C. and then diluted with PBS buffer to give a final total volume of 50 μL.
Target sequence in this assay (O34835 other isoform, or with tags, fused parts or gaps): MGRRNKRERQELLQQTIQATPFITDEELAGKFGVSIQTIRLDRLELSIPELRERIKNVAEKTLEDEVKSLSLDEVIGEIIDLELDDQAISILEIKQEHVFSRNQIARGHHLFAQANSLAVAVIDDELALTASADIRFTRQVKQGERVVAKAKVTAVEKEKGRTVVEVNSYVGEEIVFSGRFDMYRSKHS

[2] = target: T1, FapR; conditions: previously reported; cited from earlier work
Target sequence in this assay (O34835 whole entry): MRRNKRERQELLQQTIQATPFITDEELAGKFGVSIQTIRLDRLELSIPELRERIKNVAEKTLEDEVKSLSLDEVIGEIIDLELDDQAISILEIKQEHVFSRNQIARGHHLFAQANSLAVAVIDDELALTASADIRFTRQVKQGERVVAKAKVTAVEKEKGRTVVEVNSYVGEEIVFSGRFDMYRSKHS

[3] = target: T2, FapR-fapO complex (Bacillus subtilis, UniProt O34835); assay: Electrophoretic mobility shift assay of FapR and fapO; format: binding, B. subtilis; conditions: titrated against FapR, 40 bp fapO fragment; read-out: concentration at which half of the DNA would be bound
T2 construct: made in house; host or cells: E. coli BL21(DE3)
Description: Next, the cell-free FapR biosensor was assayed with each α-carboxyacyl-CoA at a fixed concentration (150 μM). […] This robust activity of pgmCoA is due in part to the increased rigidity of the alkyne side-chain or additional interactions of the alkynyl […] with the FapR ligand-binding site, with the […] side-chain of the nearby Phe99 (FIG. 5A). […] To provide further evidence that FapR is de-repressed by derivatives of mCoA, FapR was tested in vitro for DNA-binding and release by electrophoretic mobility shift assay (EMSA) in the presence of mCoA or mmCoA. Using purified wild-type FapR protein, EMSA was run with a 40 bp DNA fragment containing the fapO binding site (FIG. 7).
Electrophoretic mobility shift assay. The fapO oligonucleotides 5′-[…]-3′ (SEQ ID NO:30) and 5′-[…]-3′ (SEQ ID NO:31) were annealed per standard procedure. Briefly, the two oligos were added to a final concentration of 10 μM each in annealing buffer (19 mM Tris, pH 7.5, 50 mM NaCl, 1 mM EDTA) and heated to 95° C. for 2 minutes before cooling to 25° C. at a rate of −1° C. min^−1. […] Reactions were then analyzed by electrophoresis on a 6% PAGE gel at 220 V. The gel was stained with SYBR Green I and imaged on a Typhoon FLA 7000.

T2 sequence (O34835 other isoform, or with tags, fused parts or gaps): as the sequence (O34835 other isoform, or with tags, fused parts or gaps) above

Row | SMILES | effector of FapR as judged by cell-free fluorescence ([1]; FIG. 5D) | fluorescence response (de-repression of FapR/T7-fapO-sfGFP) compared among thioesters ([1]; FIG. 5D) | effector status for FapR [2] | also measured
1 | CC(=O)NCCSC(=O)C(C)C(=O)O (stereo not drawn) [mmSNAC] | determined to be an effector |  |  | de-repression activity relative to the corresponding CoA thioester ([1]; 150 μM, fluorescence assay, FIG. 5D): ~50%
2 | CC(C(=O)O)C(=O)SCCNC(=O)CCNC(=O)[C@H](O)C(C)(C)COP(=O)(O)OP(=O)(O)OC[C@H]1O[C@@H](n2cnc3c(N)ncnc32)[C@H](O)[C@@H]1OP(=O)(O)O (stereo partly drawn) [mmCoA, methylmalonyl-CoA] |  | statistically indistinguishable from that with the native ligand, mCoA |  | 
3 | CCC(C(=O)O)C(=O)SCCNC(=O)CCNC(=O)[C@H](O)C(C)(C)COP(=O)(O)OP(=O)(O)OC[C@H]1O[C@@H](n2cnc3c(N)ncnc32)[C@H](O)[C@@H]1OP(=O)(O)O (stereo partly drawn) [emCoA, ethylmalonyl-CoA] | identified as effectors | poorest effectors |  | 
4 | CCCC(=O)SCCNC(=O)CCNC(=O)[C@H](O)C(C)(C)COP(=O)(O)OP(=O)(O)OC[C@H]1O[C@@H](n2cnc3c(N)ncnc32)[C@H](O)[C@@H]1OP(=O)(O)O [butyryl-CoA] |  |  | non-effectors | 
5 | CC(=O)SCCNC(=O)CCNC(=O)[C@H](O)C(C)(C)COP(=O)(O)OP(=O)(O)OC[C@H]1O[C@@H](n2cnc3c(N)ncnc32)[C@H](O)[C@@H]1OP(=O)(O)O [acetyl-CoA] |  |  | non-effectors | 
6 | C#CCC(C(=O)O)C(=O)SCCNC(=O)CCNC(=O)[C@H](O)C(C)(C)COP(=O)(O)OP(=O)(O)OC[C@H]1O[C@@H](n2cnc3c(N)ncnc32)[C@H](O)[C@@H]1OP(=O)(O)O (stereo partly drawn) [pgmCoA, propargylmalonyl-CoA] | identified as effectors | indistinguishable from that of mCoA and mmCoA |  | 
7 | CCCCC(C(=O)O)C(=O)SCCNC(=O)CCNC(=O)[C@H](O)C(C)(C)COP(=O)(O)OP(=O)(O)OC[C@H]1O[C@@H](n2cnc3c(N)ncnc32)[C@H](O)[C@@H]1OP(=O)(O)O (stereo partly drawn) [bmCoA, butylmalonyl-CoA] | identified as effectors | poorest effectors |  | 
8 | CC(C)(COP(=O)(O)OP(=O)(O)OC[C@H]1O[C@@H](n2cnc3c(N)ncnc32)[C@H](O)[C@@H]1OP(=O)(O)O)[C@@H](O)C(=O)NCCC(=O)NCCSC(=O)CC(=O)O [mCoA, malonyl-CoA] |  |  |  | maximum fluorescence signal relative to absence of mCoA ([1]; 0-150 μM mCoA): ~15 fold; concentration range with linear fluorescence output of the cell-free biosensor ([1]; MatB-generated mCoA, 2.5 μM FapR, 250 nM T7-fapO-sfGFP): up to 150 μM; fluorescence output, MatB-generated versus commercial mCoA ([1]; dose-response, FIG. 6): no significant difference; EC50 [3]: 200 µM
9 | CC(C)(COP(=O)(O)OP(=O)(O)OC[C@H]1O[C@@H](n2cnc3c(N)ncnc32)[C@H](O)[C@@H]1OP(=O)(O)O)[C@@H](O)C(=O)NCCC(=O)NCCSC(=O)CCC(=O)O [succinyl-CoA] |  |  | non-effectors | 
10 | CCC(=O)SCCNC(=O)CCNC(=O)[C@H](O)C(C)(C)COP(=O)(O)OP(=O)(O)OC[C@H]1O[C@@H](n2cnc3c(N)ncnc32)[C@H](O)[C@@H]1OP(=O)(O)O [propionyl-CoA] | de-repression was not observed |  | non-effectors | 

Source: patent publication US12516388B2, “Biosensors for polyketide extender units and uses thereof” (NORTH CAROLINA STATE UNIVERSITY, priority 2019, dated 2026)
